Like-named read-outs stand apart in the source and are kept apart here. One block for each compound: values may come before it.
What was measured:
[1] = system: Candida albicans MTU 12021; test: Agar dilution MIC, single and combined use; assay type: cell-based; details: for MIC: Candida albicans, read-out: Minimum Inhibitory Concentration (MIC); for synergistic effects of combined use with Compound 1: agent combined with Compound 1, Table 1; for Minimum Inhibitory Concentration (MIC) of the agent combined with Compound 1: combined with Compound 1 at 100 μg/ml; for Minimum Inhibitory Concentration (MIC) of miconazole in combination with the arylmethylamine compound: MIC is that of miconazole, compound at a concentration of 100 mg/ml (so in the source)
Method: (1) The effects of the combined use of Compound 1 with various imidazole antifungal agents against Candida albicans MTU 12021 strain were examined as follows. […] Then, distilled water containing 0.1% by weight of Tween 80 was added thereto to obtain drug solutions having a concentration of from 1 to 1,000 μg/ml.
(§1) 1 ml of each drug solution diluted twice was introduced into a sterilized Petri dish, and 8 ml of Sabouraud agar medium was added to prepare a agar plate. Thus, a series of agar plates for the combinations having various concentrations were prepared.
(§2) Candida albicans MTU 12021 strain cultured on a Sabouraud agar medium for 24 hours, was suspended in a saline, and a cells suspension having a concentration of 2×10^6 spores/ml was prepared by counting the number of spores by a hemacytometer. Then, 50 μl of the cells suspension was inoculated to the above agar plates by means of a microplanter (manufactured by Sakuma Seisakusho). The inoculated agar plates were cultured at 37° C. for 48 hours, whereupon the presence or absence of the growth of the strain was examined.
(§3) Culture medium: Sabouraud agar medium
(§4) Culturing condition: 37° C. for 48 hours
(§5) Strain used: Candida albicans MTU 12021

[2] = system: Candida albicans MTU 12021; test: Disk method (growth inhibition ring); assay type: cell-based; details: for effects of combined use with miconazole or ketoconazole: same disk method as Example 1(3)
Method: (3) The effects of the combined use of Compound 1 with miconazole or ketoconazole were examined by a disk method.
Candida albicans MTU 12021 stain was mixed with a Sabouraud agar medium to have a concentration of 5×10^4 spores/ml, and 10 ml thereof was poured into a sterilized Petri dish to obtain an inoculated agar plate.
50 mg of each of Compound 1, miconazole and ketoconazole was impregnated to a disk (Toyo Filter paper of 8 mm in diameter), and the disk was placed on the inoculated agar plate, followed by culturing at 37° C. for 96 hours, whereupon the synergistic effects were evaluated based on the growth inhibition ring thereby appeared.

ICR male mice = test: Acute toxicity, oral, mice; assay type: in vivo; details: up to 5,000 mg/kg, ICR male mice of 5 weeks old
Text: To examine the acute toxicity of the arylmethylamine antifungal agents used in the composition of the present invention, Compounds 1 and 2 were selected, and they were, respectively, suspended in 0.5% methyl cellulose and orally administered to ICR male mice of 5 weeks old (body weight: 26-28 g) at a dose corresponding to the body weight.

[3] = system: Candida albicans MTU 12021; test: Checker board method, combined use of Compound 1 with miconazole or ketoconazole; assay type: cell-based; details: for synergistic effects of combined use with Compound 1 (checker board): agent combined with Compound 1, Tables 2 and 3; for Growth: Compound 1 0; as to growth: key: +: Growth observed; -: No growth observed
Method: as §1, §2, §3, §4, §5

[4] = Sabouraud agar, 37° C., 48 hours
[5] = MTU12021, single use, Sabouraud agar, 37° C., 48 hours

Compound: Clc1ccccc1C(c1ccccc1)(c1ccccc1)n1ccnc1 [clotrimazole]
MIC ([1]; MTU12021, 48 h): 12.5 µg/mL
synergistic effects of combined use with Compound 1 [1]: remarkable synergistic effects
Minimum Inhibitory Concentration (MIC) of the agent combined with Compound 1 [1, 4]: 3.13 µg/mL

MIC [1, 5]: 25 µg/mL
Minimum Inhibitory Concentration (MIC) of the agent combined with Compound 1 [1, 4]: 25 µg/mL
Compound: Cc1cc(O)c2c(c1)O[C@@]1(C)CC[C@H]3C(C)(C)CCC[C@]34CO[C@@H]2[C@H]41 [Siccanine]

MIC [1, 5]: > 100 µg/mL
Minimum Inhibitory Concentration (MIC) of miconazole in combination with the arylmethylamine compound [1]: 1.56 µg/mL
Compound: CN(Cc1ccc(C(C)(C)C)cc1)Cc1csc2ccccc12 [Compound 4, N-4-tert-butylbenzyl-N-methyl-3-benzo[b]thiophenemethylamine]

Compound: CN(C/C=C/C#CC(C)(C)C)Cc1cccc2ccccc12 [Compound 7, (E)-N-[6,6-dimethyl-2-hepten-4-ynyl)-N-methyl-1-naphthalenemethylamine]
MIC [1, 5]: > 100 µg/mL
Minimum Inhibitory Concentration (MIC) of miconazole in combination with the arylmethylamine compound [1]: 0.78 µg/mL
effects of combined use with miconazole or ketoconazole [2]: remarkable synergistic effects

MIC [1, 5]: > 100 µg/mL
Minimum Inhibitory Concentration (MIC) of the agent combined with Compound 1 [1, 4]: > 100 µg/mL
Compound: Clc1cc(Cl)c(OCC#CI)cc1Cl [Haloprozin]

MIC [1, 5]: > 100 µg/mL
Minimum Inhibitory Concentration (MIC) of miconazole in combination with the arylmethylamine compound [1]: 1.56 µg/mL
Compound: CN(C/C=C/c1ccccc1)Cc1cccc2ccccc12 [Compound 6, (E)-N-cinnamyl-N-methyl-1-naphthalenemethylamine]
effects of combined use with miconazole or ketoconazole [2]: remarkable synergistic effects

MIC [1, 5]: > 100 µg/mL
Minimum Inhibitory Concentration (MIC) of miconazole in combination with the arylmethylamine compound [1]: 6.25 µg/mL
Compound: CN(Cc1ccc(C(C)(C)C)cc1)Cc1ccc(F)c2ccccc12 [Compound 3, N-4-tert-butylbenzyl-N-methyl-4-fluoro-1-naphthalenemethylamine]

Compound: Clc1ccc(CO/N=C(\Cn2ccnc2)c2ccc(Cl)cc2Cl)c(Cl)c1 [oxiconazole]
synergistic effects of combined use with Compound 1 [1]: remarkable synergistic effects

Compound: CCC(C)(C)c1ccc(CN(C)Cc2cccc3ccccc23)cc1 [Compound 2, N-methyl-N-4-tert-pentylbenzyl-1-naphthalenemethylamine]
MIC [1, 5]: > 100 µg/mL
Minimum Inhibitory Concentration (MIC) of miconazole in combination with the arylmethylamine compound [1]: 3.13 µg/mL
death (ICR male mice): no instance of death

MIC [1, 5]: 50 µg/mL
Minimum Inhibitory Concentration (MIC) of the agent combined with Compound 1 [1, 4]: 50 µg/mL
Compound: O=[N+]([O-])c1c(Cl)cccc1-c1c[nH]cc1Cl [Pyrrolnitrin]

MIC [1, 5]: 100 µg/mL
Minimum Inhibitory Concentration (MIC) of the agent combined with Compound 1 [1, 4]: 100 µg/mL
Compound: O=C(CCCCCCCCC#CI)Oc1ccccc1 [KP-4249]

MIC [1, 5]: 25 µg/mL
Minimum Inhibitory Concentration (MIC) of the agent combined with Compound 1 [1, 4]: 1.56 µg/mL
Compound: Clc1ccc(C(Cn2ccnc2)OCc2c(Cl)cccc2Cl)c(Cl)c1 (centres unmarked) [isoconazole]
synergistic effects of combined use with Compound 1 [1]: remarkable synergistic effects

MIC [1, 5]: > 100 µg/mL
Minimum Inhibitory Concentration (MIC) of miconazole in combination with the arylmethylamine compound [1]: 3.13 µg/mL
Compound: CN(Cc1ccc(C(C)(C)C)s1)Cc1cccc2ccccc12 [Compound 5, N-methyl-N-(1-naphthalenemethyl)-5-tert-butyl-2-thiophenemethylamine]

MIC [1, 5]: 3.13 µg/mL
Minimum Inhibitory Concentration (MIC) of the agent combined with Compound 1 [1, 4]: 3.13 µg/mL
Compound: C[C@@H]1[C@H](O)[C@@H](C)/C=C/C=C/C=C/C=C/C=C/C=C/C=C/[C@H](O[C@@H]2O[C@H](C)[C@@H](O)[C@H](N)[C@@H]2O)C[C@@H]2O[C@](O)(C[C@@H](O)C[C@@H](O)[C@H](O)CC[C@@H](O)C[C@@H](O)CC(=O)O[C@H]1C)C[C@H](O)[C@H]2C(=O)O [Amphotericin B]

MIC [1, 5]: 25 µg/mL
Minimum Inhibitory Concentration (MIC) of the agent combined with Compound 1 [1, 4]: 1.56 µg/mL
Compound: Clc1ccc(COC(Cn2ccnc2)c2ccc(Cl)cc2Cl)cc1 (centres unmarked) [econazole]
synergistic effects of combined use with Compound 1 [1]: remarkable synergistic effects

Compound: CC(=O)N1CCN(c2ccc(OCC3COC(Cn4ccnc4)(c4ccc(Cl)cc4Cl)O3)cc2)CC1 (centres unmarked) [ketoconazole, reference compound]
synergistic effects of combined use with Compound 1 (checker board) [3]: Remarkable syntergistic effects
Growth ([3]; ketoconazole 0.1 μg/ml): +
Growth ([3]; ketoconazole 0.2 μg/ml): +
Growth ([3]; ketoconazole 0.39 μg/ml): +
Growth ([3]; ketoconazole 0.78 μg/ml): +
Growth ([3]; ketoconazole 1.56 μg/ml): +
Growth ([3]; ketoconazole 3.13 μg/ml): +
Growth ([3]; ketoconazole 12.5 μg/ml): +
Growth ([3]; ketoconazole 25 μg/ml): -
Growth ([3]; ketoconazole 50 μg/ml): -
Growth ([3]; ketoconazole 100 μg/ml): -

Compound: Clc1ccc(COC(Cn2ccnc2)c2ccc(Cl)cc2Cl)c(Cl)c1 (centres unmarked) [miconazole, reference compound]
MIC ([1]; MTU12021, 48 h): 25 µg/mL
synergistic effects of combined use with Compound 1 [1]: remarkable synergistic effects
Minimum Inhibitory Concentration (MIC) of the agent combined with Compound 1 [1, 4]: 1.56 µg/mL
synergistic effects of combined use with Compound 1 (checker board) [3]: Remarkable syntergistic effects
Growth ([3]; miconazole 0.39 μg/ml): +
Growth ([3]; miconazole 0.78 μg/ml): +
Growth ([3]; miconazole 1.56 μg/ml): +
Growth ([3]; miconazole 3.13 μg/ml): +
Growth ([3]; miconazole 12.5 μg/ml): +
Growth ([3]; miconazole 25 μg/ml): +
Growth ([3]; miconazole 50 μg/ml): -
Growth ([3]; miconazole 100 μg/ml): -
growth inhibition ring, disk alone ([2]; 50 mg per disk (so in the source), 37° C., 96 hours, FIG. 2): a complete inhibitory ring with a small diameter and an incomplete inhibitory ring with a large diameter
